Results from publication PMC10818931, “In Vitro Evaluation of Drug–Drug Interaction Potential of Epetraborole, a Novel Bacterial Leucyl-tRNA Synthetase Inhibitor” (Pharmaceuticals, 2024).

Assays:
Format in all cases: in vitro ADME
P-gp = P-gp (Homo sapiens, UniProt P08183); test: Substrate potential for P-gp, bidirectional permeability in MDR1-MDCK; settings: for Concentration in the receiver compartment: 5 µM, MDR1-MDCK and MDCK cells, A to B and B to A, Papp and efflux ratio could not be calculated; for as a Substrate: P-gp
P-gp, sequence (P08183 whole entry): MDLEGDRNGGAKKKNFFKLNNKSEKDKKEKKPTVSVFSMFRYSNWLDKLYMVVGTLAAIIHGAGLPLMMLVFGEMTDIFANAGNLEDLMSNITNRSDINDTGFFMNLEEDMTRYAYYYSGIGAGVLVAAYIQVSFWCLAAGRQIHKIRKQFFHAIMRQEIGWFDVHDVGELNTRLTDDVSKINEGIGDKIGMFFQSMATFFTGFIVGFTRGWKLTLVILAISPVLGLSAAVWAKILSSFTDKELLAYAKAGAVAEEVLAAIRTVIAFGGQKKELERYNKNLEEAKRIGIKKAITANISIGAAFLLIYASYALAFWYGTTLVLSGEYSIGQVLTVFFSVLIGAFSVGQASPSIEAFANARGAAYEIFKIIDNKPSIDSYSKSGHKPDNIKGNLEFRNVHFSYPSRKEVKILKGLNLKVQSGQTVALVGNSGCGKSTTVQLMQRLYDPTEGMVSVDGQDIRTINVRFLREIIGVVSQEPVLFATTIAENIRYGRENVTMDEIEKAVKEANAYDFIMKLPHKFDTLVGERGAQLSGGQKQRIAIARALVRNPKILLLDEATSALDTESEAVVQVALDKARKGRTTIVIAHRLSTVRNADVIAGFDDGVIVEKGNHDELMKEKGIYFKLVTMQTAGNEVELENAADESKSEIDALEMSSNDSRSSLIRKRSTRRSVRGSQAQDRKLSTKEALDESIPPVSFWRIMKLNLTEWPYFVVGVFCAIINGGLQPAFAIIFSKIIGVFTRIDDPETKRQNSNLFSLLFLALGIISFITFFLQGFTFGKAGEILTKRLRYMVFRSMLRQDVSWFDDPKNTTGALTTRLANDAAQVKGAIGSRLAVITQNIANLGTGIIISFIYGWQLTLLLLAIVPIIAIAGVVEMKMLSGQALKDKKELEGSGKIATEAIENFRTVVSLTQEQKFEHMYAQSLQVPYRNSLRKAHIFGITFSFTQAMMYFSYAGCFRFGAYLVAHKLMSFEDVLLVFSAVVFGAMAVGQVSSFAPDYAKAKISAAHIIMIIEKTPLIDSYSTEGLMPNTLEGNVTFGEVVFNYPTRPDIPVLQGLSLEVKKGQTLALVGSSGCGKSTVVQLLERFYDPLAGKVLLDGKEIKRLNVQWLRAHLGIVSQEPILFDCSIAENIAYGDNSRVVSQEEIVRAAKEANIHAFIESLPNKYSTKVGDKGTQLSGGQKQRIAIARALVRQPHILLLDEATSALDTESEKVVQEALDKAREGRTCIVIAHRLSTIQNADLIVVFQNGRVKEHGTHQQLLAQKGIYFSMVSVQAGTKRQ
Protocol: In vitro evaluation of the substrate potential of EBO (5 µM) and M3 (5 µM) for P-gp was conducted in single transporter-transfected and non-transfected Madin–Darby canine kidney (MDCK) cells monolayers according to Absorption Systems (Exton, PA, USA) standard operating procedures (SOP). The integrity of each cell monolayer was evaluated by lucifer yellow presence.

MATE2K = target: T1, MATE2K (Homo sapiens, UniProt Q86VL8); test: Substrate potential in transporter-transfected MDCK cells
T1 construct: host or cells: MDCK
T1 sequence (Q86VL8 1-566 isoform Q86VL8-3): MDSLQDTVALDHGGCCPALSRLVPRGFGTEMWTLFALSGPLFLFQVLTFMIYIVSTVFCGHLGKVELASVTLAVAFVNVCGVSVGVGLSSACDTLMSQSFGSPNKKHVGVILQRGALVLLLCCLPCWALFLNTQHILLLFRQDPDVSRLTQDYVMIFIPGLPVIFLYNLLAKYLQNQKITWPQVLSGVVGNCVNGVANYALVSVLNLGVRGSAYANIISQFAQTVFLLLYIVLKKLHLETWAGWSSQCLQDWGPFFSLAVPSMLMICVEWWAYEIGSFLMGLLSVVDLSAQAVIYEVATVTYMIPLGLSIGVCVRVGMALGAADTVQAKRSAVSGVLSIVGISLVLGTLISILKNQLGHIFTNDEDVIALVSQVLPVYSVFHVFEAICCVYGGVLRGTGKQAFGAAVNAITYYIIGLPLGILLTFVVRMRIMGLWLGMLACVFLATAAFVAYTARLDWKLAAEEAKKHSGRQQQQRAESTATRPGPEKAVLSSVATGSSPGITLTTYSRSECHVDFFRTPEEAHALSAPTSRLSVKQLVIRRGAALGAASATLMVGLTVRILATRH
Protocol: (§1) The uptake of a probe substrate of each transporter was conducted in parallel with the test article in separate wells of the same batch of vector control and transporter-transfected cells. Cells were incubated at 37 °C with 5% CO2 with 500 μL of dosing solution for different periods of time.

OAT1 [1] = target: T2, OAT1 (Homo sapiens, UniProt Q4U2R8); test: as above
T2 construct: host or cells: MDCK
T2 sequence (Q4U2R8 1-563): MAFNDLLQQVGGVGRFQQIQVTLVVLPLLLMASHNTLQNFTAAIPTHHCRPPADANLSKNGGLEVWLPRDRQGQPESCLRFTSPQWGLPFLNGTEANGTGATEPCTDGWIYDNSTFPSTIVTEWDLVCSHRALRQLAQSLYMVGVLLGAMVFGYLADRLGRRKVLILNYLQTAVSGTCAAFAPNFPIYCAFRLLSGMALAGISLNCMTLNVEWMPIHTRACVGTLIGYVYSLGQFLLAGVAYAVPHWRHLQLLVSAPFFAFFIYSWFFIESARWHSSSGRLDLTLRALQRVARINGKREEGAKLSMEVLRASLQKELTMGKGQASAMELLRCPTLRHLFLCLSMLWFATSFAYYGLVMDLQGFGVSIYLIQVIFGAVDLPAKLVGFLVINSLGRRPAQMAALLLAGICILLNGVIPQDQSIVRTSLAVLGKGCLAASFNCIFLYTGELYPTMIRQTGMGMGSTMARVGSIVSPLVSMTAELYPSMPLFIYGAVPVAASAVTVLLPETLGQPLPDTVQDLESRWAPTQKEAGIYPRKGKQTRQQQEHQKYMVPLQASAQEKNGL
Protocol: as §1

OATP1B1 = target: T3, OATP1B1 (Homo sapiens, UniProt Q9Y6L6); test: as above
T3 construct: host or cells: MDCK
T3 sequence (Q9Y6L6 1-691): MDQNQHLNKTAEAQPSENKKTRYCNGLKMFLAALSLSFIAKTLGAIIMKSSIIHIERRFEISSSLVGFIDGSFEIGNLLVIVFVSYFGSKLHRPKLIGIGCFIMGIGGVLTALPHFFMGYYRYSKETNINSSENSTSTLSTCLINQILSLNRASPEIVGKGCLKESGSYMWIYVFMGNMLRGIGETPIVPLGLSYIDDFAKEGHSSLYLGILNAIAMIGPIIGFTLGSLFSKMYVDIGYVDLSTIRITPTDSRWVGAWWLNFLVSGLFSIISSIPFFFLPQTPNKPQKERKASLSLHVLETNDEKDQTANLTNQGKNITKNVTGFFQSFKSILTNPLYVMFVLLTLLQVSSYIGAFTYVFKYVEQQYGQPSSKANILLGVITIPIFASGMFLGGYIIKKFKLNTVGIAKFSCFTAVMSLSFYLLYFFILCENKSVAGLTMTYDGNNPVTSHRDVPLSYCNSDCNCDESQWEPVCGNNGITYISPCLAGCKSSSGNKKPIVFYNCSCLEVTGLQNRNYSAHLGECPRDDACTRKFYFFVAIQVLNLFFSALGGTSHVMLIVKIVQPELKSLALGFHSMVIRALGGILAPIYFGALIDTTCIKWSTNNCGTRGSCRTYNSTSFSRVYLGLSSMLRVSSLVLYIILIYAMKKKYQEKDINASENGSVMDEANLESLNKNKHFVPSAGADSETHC
Protocol: as §1

OCT2 [2] = target: T4, OCT2 (Homo sapiens, UniProt O15244); test: as above
T4 construct: host or cells: MDCK
T4 sequence (O15244 1-555): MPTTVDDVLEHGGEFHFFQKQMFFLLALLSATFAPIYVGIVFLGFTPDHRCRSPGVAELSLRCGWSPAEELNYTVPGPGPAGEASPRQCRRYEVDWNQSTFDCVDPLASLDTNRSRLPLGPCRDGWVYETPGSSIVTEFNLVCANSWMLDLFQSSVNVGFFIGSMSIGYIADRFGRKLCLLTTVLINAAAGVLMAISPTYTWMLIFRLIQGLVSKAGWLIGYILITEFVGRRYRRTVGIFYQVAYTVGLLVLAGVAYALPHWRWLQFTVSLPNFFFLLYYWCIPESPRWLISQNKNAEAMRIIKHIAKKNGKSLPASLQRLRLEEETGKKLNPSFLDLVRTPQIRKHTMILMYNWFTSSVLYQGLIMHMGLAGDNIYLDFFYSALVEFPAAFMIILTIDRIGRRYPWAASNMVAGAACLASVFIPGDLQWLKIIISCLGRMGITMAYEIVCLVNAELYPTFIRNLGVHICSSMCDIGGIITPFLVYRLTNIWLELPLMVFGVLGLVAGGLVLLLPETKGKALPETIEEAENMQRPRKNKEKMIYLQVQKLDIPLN
Protocol: as §1

OAT1 [3] = target: T2, OAT1; test: Uptake transporter inhibition in transfected HEK 293 or MDCK cells; settings: read-out: as an Inhibitor, IC50
Protocol: (§2) Cell monolayers were preincubated (37 °C) for 15 to 30 min in a transport medium containing the target concentration of EBO or a specific inhibitor without substrate. Following the removal of preincubation solutions, appropriate working solutions containing EBO at the target concentration plus the probe substrate were added to the wells in triplicate. Separate sets of triplicate wells were designated for probe substrate only and probe substrate plus the specific inhibitors, to determine the maximal uptake rate and maximal inhibition of uptake, respectively. After incubation at 37 °C for each transporter, the working solution was removed from each well and the experiment was stopped by washing three times with cold (4 °C) DPBS. Depending on the substrate label, cells were either lysed for the analysis of total radioactivity (liquid scintillation counter) or LC-MS/MS methods. For measuring relative fluorescence (FLUOstar Galaxy, Cary, NC, USA), cells were not lysed.

OCT2 [4] = target: T4, OCT2; test: as above
Protocol: as §2

SMILES	Concentration in the receiver compartment (P-gp)	as a Substrate (P-gp)	Influx ratio (MATE2K)	as a Substrate (MATE2K)	Influx ratio (OAT1 [1])	as a Substrate (OAT1 [1])	Influx ratio (OATP1B1)	as a Substrate (OATP1B1)	as a Substrate (OCT2 [2])	Influx ratio (OCT2 [2]; 5 µM)	IC50 (OAT1 [3]) [µM]	inhibition at 1000 µM (OCT2 [4]; human, probe metformin, metformin transport, at 1000 µM (maximum tested)) [%]	IC50 (OCT2 [4]; read-out: as an Inhibitor, IC50) [µM]
NC[C@H]1OB(O)c2c(OCCCO)cccc21 [EBO, Epetraborole]	below the lower limit of quantification	No	< 2	No	< 2	No	< 2	No	could potentially be a substrate and Yes	3.44	> 1000	20	
NC[C@H]1OB(O)c2c(OCCC(=O)O)cccc21 [M3]	below the lower limit of quantification	No	< 2	No	< 2	No	< 2	No	not a substrate and No		> 250		> 250
